Biological target: T1, ubiquitin-specific protease 28 (USP28) (Homo sapiens, UniProt Q96RU2)
T1 construct: endogenous, NCI-H520 cell extracts and intact cells
T1 sequence (Q96RU2 1-1077): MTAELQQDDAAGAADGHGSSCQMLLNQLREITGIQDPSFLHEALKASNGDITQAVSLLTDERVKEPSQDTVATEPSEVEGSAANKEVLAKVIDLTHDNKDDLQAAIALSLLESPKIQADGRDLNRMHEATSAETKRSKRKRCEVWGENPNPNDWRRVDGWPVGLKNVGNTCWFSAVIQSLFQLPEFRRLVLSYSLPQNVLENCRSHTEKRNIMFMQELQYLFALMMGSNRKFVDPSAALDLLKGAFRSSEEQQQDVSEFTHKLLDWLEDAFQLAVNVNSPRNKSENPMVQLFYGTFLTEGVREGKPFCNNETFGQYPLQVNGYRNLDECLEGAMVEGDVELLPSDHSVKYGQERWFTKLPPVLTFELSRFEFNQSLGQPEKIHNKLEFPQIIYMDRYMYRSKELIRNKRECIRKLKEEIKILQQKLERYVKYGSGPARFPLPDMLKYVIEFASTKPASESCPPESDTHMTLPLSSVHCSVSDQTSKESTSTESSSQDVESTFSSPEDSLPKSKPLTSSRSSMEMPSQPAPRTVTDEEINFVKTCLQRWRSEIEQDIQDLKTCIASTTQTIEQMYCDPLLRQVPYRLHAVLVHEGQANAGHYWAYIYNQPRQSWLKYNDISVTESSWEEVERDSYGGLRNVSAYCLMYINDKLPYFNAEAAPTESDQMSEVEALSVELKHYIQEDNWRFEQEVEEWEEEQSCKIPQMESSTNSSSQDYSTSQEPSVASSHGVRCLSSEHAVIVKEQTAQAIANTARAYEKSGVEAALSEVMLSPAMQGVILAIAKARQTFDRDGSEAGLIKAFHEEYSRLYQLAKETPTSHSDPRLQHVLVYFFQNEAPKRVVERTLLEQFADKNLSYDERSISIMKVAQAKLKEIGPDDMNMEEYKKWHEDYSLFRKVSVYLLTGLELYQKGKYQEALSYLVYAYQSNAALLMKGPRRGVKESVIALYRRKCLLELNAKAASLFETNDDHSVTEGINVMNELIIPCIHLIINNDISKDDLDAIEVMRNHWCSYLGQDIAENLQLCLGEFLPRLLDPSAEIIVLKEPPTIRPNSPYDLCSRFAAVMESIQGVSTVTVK
Test: competition with HA-UbPA activity-based probe labelling (Western blot) in NCI-H520 extract and cells; ABPP mass spectrometry
Type: biochemical

Structure (SMILES): Cc1ccc2c(N)c(C(=O)N[C@H]3CCc4cc(N5CC6CCC(C5)N6)ccc4C3)sc2n1 [FT206]
- EC50: 300 to 1000 nM

Reference: publication PMC8553340, “USP28 deletion and small-molecule inhibition destabilizes c-MYC and elicits regression of squamous cell lung carcinoma” (eLife, 2021)
